Reference: patent US9199983B2, “3-aryl-6-aryl-[1,2,4]triazolo[4,3-α]pyridines as inhibitors of cell proliferation and the use thereof” (priority 2010, dated 2015)

Legend:
[1] = system: mouse melanoma cell line B16F10; assay: MTT cancer cell cytotoxicity assay, B16F10; assay type: cell-based; settings: Mus musculus, B16-F10, B16F10 cells, 48-72 h
Description: Identification of 3-(2-methoxyphenyl)-6-(4-methoxyphenyl)-[1,2,4]triazolo[4,3-a]pyridine and analogs as inhibitors of cell proliferation that were evaluated with standard MTT cancer cell cytotoxicity assay (IC50)
Human lung cancer cell line A549, breast cancer cell line T47D, liver cancer cell lines HepG2 and SMMC7721 as well as a mouse melanoma cell line B16F10 were used in the study. The cells were cultured in corresponding growth media recommended by American Type Culture Collection (ATCC) with the supplementation of penicillin G (100 U/ml)/streptomycin (100 µg/ml), and 10% fetal bovine serum (Hangzhou Sijiqing Biological Engineering Materials, Co., Ltd. China) at 37° C. in a humidified atmosphere containing 5% CO2. Cells at about 80% confluency were harvested by trypsinization. Cells were centrifuged, re-suspended in fresh growth media and counted. Corresponding numbers of cells were seeded to 96-well cell culture plates (HepG2 cell, T-47D and A549 cells at 3000 cells/well, SMMC-7721 cells at 5000 cells/well and B16F10 cells at 2000 cells/well) in a total volume of […]. Cells were incubated in CO2 incubator over night to allow the cells to attach. In next day, […] of medium containing testing (from 10 μM to 1 nM) or reference compounds was added to each well of the cells. Media without compound were used as 100% control. Cells were treated with each concentration of compounds in triplicates to ensure data accuracy. Cells were incubated with compounds in CO2 incubator for an additional 48-72 h at 37° C. After incubation, cells were removed from the CO2 incubator and […] of 5 mg/ml MTT (3-(4,5-dimethylthiazole-2-yl)-2,5-diphenyltetrazoliumbromide, Sigma) solution in PBS was added to each well. Cells were returned to CO2 incubator and incubated for additional 4 h. After the incubation, media were removed by aspiration and […] DMSO was added to each well. Plates were sealed with aluminum foil and shaked mildly on an orbital shaker for 10 min at room temperature. The absorption was measured at 550 nm with a plate reader (Varioskan Flash, Thermo Fisher Scientific) with 660 nm reading used as background control. The relative absorbance readings were calculated by subtracting readings at 660 nm from that at 550 nm. The relative absorbance was plotted again the concentrations of the testing compounds and the plots were fitted with a one-site lg(IC50) equation using Prism 5 software (GraphPad Software, Inc). The equation used in the curve fitting is as follows: relative absorbance reading=background reading+(maximal reading−brackground reading)/(1+10 ^(compound concentration-log IC50)). The background reading used in the calculation was obtained with 100% cell death using a reference anticancer drug, whereas the maximal reading was obtained in the well with no added compound. The IC50 value calculated from the equation represents the cytotoxic potency of a particular compound.

[2] = system: liver cancer cell line HepG2; assay: MTT cancer cell cytotoxicity assay, HepG2; assay type: cell-based, human; settings: Homo sapiens, HepG2 cells, 48-72 h
Method in brief: (§1)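 Seeding: HepG2 and A549 at 3000, SMMC7721 at 5000, B16F10 at 2000 cells/well, attached overnight. Compounds (10 μM to 1 nM, triplicate) were applied for 48-72 h at 37 °C, followed by 4 h MTT. A550 minus A660 was fitted for IC50, with untreated wells as maximum and reference-drug total kill as background.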

[3] = system: liver cancer cell line SMMC7721; assay: MTT cancer cell cytotoxicity assay, SMMC7721; assay type: cell-based, human; settings: Homo sapiens, SMMC-7721, SMMC7721 cells, 48-72 h
Method in brief: as §1

[4] = system: breast cancer cell line T47D; assay: MTT cancer cell cytotoxicity assay, T47D; assay type: cell-based, human; settings: Homo sapiens, T47D cells, 48-72 h
Method in brief: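 Human T47D breast cancer cells, cultured per ATCC recommendations with 10% fetal bovine serum and penicillin/streptomycin, were plated at 3000 cells/well in 96-well plates. After overnight attachment they were exposed in triplicate to compounds (10 μM to 1 nM) for 48-72 h. MTT was then added for 4 h and the formazan dissolved in DMSO. Absorbance at 550 nm minus 660 nm was fitted in Prism 5 to give IC50.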

caspase-3 activation [5] = assay: Caspase-3 activation (apoptosis induction) in A549 cells; assay type: cell-based; settings: Homo sapiens, A-549 cells, 24 h treatment, read-out: EC50 to induce caspase-3 activation, A-549
Description: (§2) Identification of 3-(2-methoxyphenyl)-6-(4-methoxyphenyl)-[1,2,4]triazolo[4,3-a]pyridine and analogs as inducers of apoptosis in solid tumor cells
(§3) Human breast cancer cell line T-47D and lung cancer cell line A549, growing in DMEM/F12+10% FBS media were seeded to a density of 20000 cells/well in 96-well cell culture plate and grew overnight (18-24 h) in CO2 cell culture incubator at 37° C. Next day the medium were removed by aspiration and […] fresh growth media was added to each well followed by […] of growth media containing 10× concentration of reference or testing compounds with 10% DMSO. Twenty four hours later, cell culture plates were centrifuged at 1000 g for 5 min and the supernatant was removed by emptying contents into a reservoir. Fifty μl of Lysis Buffer (10 mM Tris, pH7.5, 0.1M NaCl, 1 Mm EDTA, 0.01% Triton X-100) was added to each well and the plates were incubated with gentle agitation on an orbital shaker at 4° C. for 30 min. The plates were then centrifuged at 1000 g for 10 min at 4° C. and 20 μl of the supernatant was transferred from each well to a corresponding well in a black 384-well. Twenty μl of caspase-3 assay buffer (20 mM PIPES, pH7.4, 4 Mm EDTA and 0.2% CHAPS) containing 20 μM fluorogenic caspase-3 substrate ((Ac-DEVD)2-R110, AnaSpec Cat #60304-5) was added to each well. The samples were mixed by agitation and incubated at 37° C. for 3 h. The fluorescent intensity of each well was read on a fluorescent plate reader (Varioskan Flash, Thermo Fisher Scientific) with excitation wavelength at 496 nm and emission wavelength at 520 nm. The activity of compounds on caspase-3 activation was determined by plotting the relative fluorescent unit (RFU) against the testing concentrations of the compounds. The EC50 values were determined by fitting the above responding curves into Prism sigmoidal dose-response equation (GraphPad Software, Inc).

caspase-3 activation [6] = assay: Caspase-3 activation (apoptosis induction) in T-47D cells; assay type: cell-based; settings: Homo sapiens; T47D cells, 24 h treatment; read-out: EC50 to induce caspase-3 activation, T47D
Description: as §2, §3

[7] = system: Human lung cancer cell line A549; assay: MTT cancer cell cytotoxicity assay, A549; assay type: cell-based; settings: Homo sapiens, A549 cells, 48-72 h
Method in brief: as §1

Row | EC50 (caspase-3 activation [5]) [nM] | EC50 (caspase-3 activation [6]) [nM] | SMILES | IC50 [1] [nM] | IC50 [2] [nM] | IC50 [3] [nM] | IC50 [4] [nM] | IC50 [7] [nM]
1 | 25 | 228 | COc1ccc(-c2ccc3nnc(-c4ccccc4OC)n3c2)cc1F [Example 35, 6-(3-Fluoro-4-methoxyphenyl)-3-(2-methoxyphenyl)-[1,2,4]triazolo[4,3-a]pyridine] | 16 | 19 | 9.9 | 68 | 20
2 | 5 | 20 | COc1ccc(-c2ccc3nnc(-c4ccc(Cl)cc4OC)n3c2)cc1 [Example 57, 3-(4-Chloro-2-methoxyphenyl)-6-(4-methoxyphenyl)-[1,2,4]triazolo[4,3-a]pyridine] | 1.6 | 3.4 | 6.7 | 4.1 | 3.4
3 | 93 | 76 | COc1ccc(-c2ccc3nnc(-c4ccccc4OC)n3c2)cc1C [Example 5, 6-(4-Methoxy-3-methylphenyl)-3-(2-methoxyphenyl)-[1,2,4]triazolo[4,3-a]pyridine] | 37 | 32 | 11 | 40 | 11
4 | 11 | 62 | COc1ccc(-c2ccc3nnc(-c4ccc(C)cc4OC)n3c2)cc1 [Example 66, 3-(2-Methoxy-4-methylphenyl)-6-(4-methoxyphenyl)-[1,2,4]triazolo[4,3-a]pyridine] | 3.4 | 15 | 3.7 | 19 | 12
5 |  | 22 | COc1ccc(-c2ccc3nnc(-c4ccc([N+](=O)[O-])cc4OC)n3c2)cc1 [Example 70, 3-(2-Methoxy-4-nitrophenyl)-6-(4-methoxyphenyl)-[1,2,4]triazolo[4,3-a]pyridine] | 4.4 | 22 | 9.9 | 13 | 6.7
6 |  | 2.8 | COc1ccc(-c2ccc3nnc(-c4ccc(C)cc4OC)n3c2)cc1O [Example 51, 6-(3-Hydroxy-4-methoxyphenyl)-3-(2-methoxy-4-methylphenyl)-[1,2,4]triazolo[4,3-a]pyridine] | 2.1 | 1.1 | > 10000 | 1.1 | 4
7 |  | 9.3 | COc1ccc(-c2ccc3nnc(-c4ccc(Cl)cc4OC)n3c2)cc1F [Example 49, 3-(4-Chloro-2-methoxyphenyl)-6-(3-fluoro-4-methoxyphenyl)-[1,2,4]triazolo[4,3-a]pyridine] | 4.9 | 3.3 | 4.6 | 4.5 | 4.9
8 |  | 3.5 | COc1ccc(-c2ccc3nnc(-c4ccc(Cl)cc4OC)n3c2)cc1N [Example 50, 6-(3-Amino-4-methoxyphenyl)-3-(4-chloro-2-methoxyphenyl)-[1,2,4]triazolo[4,3-a]pyridine] | 1.6 | 1.4 | 1.3 | 1.1 | 1.7
9 |  | 5.4 | COc1ccc(-c2ccc3nnc(-c4ccc(C)cc4OC)n3c2)cc1N [Example 52, 6-(3-Amino-4-methoxyphenyl)-3-(2-methoxy-4-methylphenyl)-[1,2,4]triazolo[4,3-a]pyridine] | 2.1 | 2.3 | 1.8 | 2 | 2.6
10 | 83 | 55 | COc1ccc(-c2ccc3nnc(-c4ccccc4OC)n3c2)cc1 [Example 1, 3-(2-Methoxyphenyl)-6-(4-methoxyphenyl)-[1,2,4]triazolo[4,3-a]pyridine] | 36 | 28 | 13 | 37 | 35
11 |  | 25 | COc1ccc(-c2ccc3nnc(-c4ccc(Br)cc4OC)n3c2)cc1 [Example 59, 3-(4-Bromo-2-methoxyphenyl)-6-(4-methoxyphenyl)-[1,2,4]triazolo[4,3-a]pyridine] | 6.1 | 7.1 | 3.8 | 6.6 | 12
12 |  | 2.3 | COc1ccc(-c2ccc3nnc(-c4ccc(Cl)cc4OC)n3c2)cc1O [Example 89, 3-(4-Chloro-2-methoxyphenyl)-6-(3-hydroxy-4-methoxyphenyl)-[1,2,4]triazolo[4,3-a]pyridine] | 1.1 | 1.4 | > 10000 | 0.84 | 1.6
13 | 32 | 240 | COc1ccc(-c2ccc3nnc(-c4ccccc4OC)n3c2)cc1Cl [Example 26, 6-(3-Chloro-4-methoxyphenyl)-3-(2-methoxyphenyl)-[1,2,4]triazolo[4,3-a]pyridine] | 23 | 23 | 12 | 52 | 33
